Measurements published in publication PMC10214531 (ACS Central Science, 2023).

Experiments:
Type in all cases: cell-based, human
[1] = test system: GLP-1R mutants of L172, C174, N177, Y250 and M340; assay: cAMP accumulation assay, mutants of functional residues except F169; conditions: mutants of six functional residues except F169; four independent experiments
Text: The cDNA of human GLP-1R was cloned into vector pcDNA 3.1 or pRK. In the cAMP assay, the GLP-1R sequence comprises the native signal peptide (residues 1–23) and a FLAG tag. In flow cytometry analysis, the GLP-1R sequence contains the same native signal peptide, followed by a FLAG or HA tag. Mutations or deletions for the cAMP assay and flow cytometry were generated using seamless cloning with KOD-Plus-Neo (TOYOBO) and confirmed by DNA sequencing.
After overnight of culture, specified amounts of wild-type or mutant GLP-1R and 0.5 μg of pGloSensor cAMP plasmid were cotransfected into HEK-293T cells using calcium phosphate. After 24 h of culture, the transfected cells were seeded into 384-well plates (12 000 cells per well). cAMP accumulation was measured using the GloSensor cAMP assay kit (Promega) according to the manufacturer’s instructions. In brief, transfected cells were incubated for 30 min in GloSensor cAMP reagent at 37 °C and room temperature.
(§1) Significant difference is accepted at p < 0.05.

GLP-1R R344A = assay: cAMP accumulation assay (GloSensor)
[2] = test system: GLP-1R-mediated Gs activation, Gαs truncation of residues 2-8; assay: G protein activation assay (BRET2 TRUPATH), Gαs truncated 2-8; conditions: Gαs truncation of residues 2-8, vs WT, HEK-293T
Description: (§2) Cells were treated with 20 μL of each compound.
as §1

[3] = test system: GLP-1R-mediated Gs activation, Gαs truncation of residues 2-10; assay: G protein activation assay (BRET2 TRUPATH), Gαs truncated 2-10; conditions: Gαs truncation of residues 2-10, vs WT, HEK-293T
Description: as §2, §1

[4] = test system: GLP-1R-mediated Gs activation, Gαs L394 and L393 substituted; assay: G protein activation assay (BRET2 TRUPATH), Gαs double mutant L393 and L394; conditions: Gαs L394 and L393 both substituted, vs WT; HEK-293T
Description: as §2, §1

[5] = test system: GLP-1R-mediated Gs activation, Gαs L394 to alanine; assay: G protein activation assay (BRET2 TRUPATH), Gαs mutant L394 to alanine; conditions: Gαs L394 replaced by alanine, vs WT; HEK-293T
Description: as §2, §1

GLP-1R F169 = assay: G protein activation assay (BRET2 TRUPATH); conditions: agonist GLP-1, HEK-293T, s.d.
Description: as §2, §1

GLP-1R Y250 = assay: G protein activation assay (BRET2 TRUPATH); conditions: agonist GLP-1, HEK-293T, s.d.
Description: as §2, §1

GLP-1R alanine mutants = assay: cAMP accumulation assay (GloSensor), alanine scan of 37 GLP-1R residues
[6] = test system: GLP-1R-mediated Gs activation, Gαs alanine mutants; assay: G protein activation assay (BRET2 TRUPATH), alanine scan of 41 Gαs residues; conditions: 16 of 41 Gαs alanine mutants, vs WT
Description: as §2, §1

Molecule | cAMP signaling vs WT [1] | EC50 (GLP-1R R344A; agonist GLP-1, HEK-293T, 15 min, 25 °C, surface expression 31±4.03 % WT) | Emax (GLP-1R R344A; agonist GLP-1, cAMP accumulation, HEK-293T) | Gs protein activation mediated by GLP-1R [2] | Gs protein activation mediated by GLP-1R [3] | GLP-1 activity in G protein dissociation [4] | GLP-1 efficacy in inducing G protein dissociation [5] | Emax (GLP-1R F169) | Emax (GLP-1R Y250) | GLP-1 potency in cAMP signaling induction (GLP-1R alanine mutants; 18 of 37 GLP-1R alanine mutants, vs WT) | GLP-1 efficacy (cAMP) (GLP-1R alanine mutants; two mutants with abnormal expression (gray columns in Figure 5b)) | GLP-1 efficacy in Gs activation [6]
N#Cc1ccc(COc2cccc(C3CCN(Cc4nc5ccc(C(=O)O)cc5n4C[C@@H]4CCO4)CC3)n2)c(F)c1 [PF 06882961] | attenuated cAMP signaling |  |  |  |  |  |  |  |  |  |  | 
exendin-4: another peptide agonist (exendin-4) | attenuated cAMP signaling |  |  |  |  |  |  |  |  |  |  | 
CC[C@H](C)[C@H](NC(=O)[C@H](Cc1ccccc1)NC(=O)[C@H](CCC(=O)O)NC(=O)[C@H](CCCCN)NC(=O)[C@H](C)NC(=O)[C@H](C)NC(=O)[C@H](CCC(N)=O)NC(=O)CNC(=O)[C@H](CCC(=O)O)NC(=O)[C@H](CC(C)C)NC(=O)[C@H](Cc1ccc(O)cc1)NC(=O)[C@H](CO)NC(=O)[C@H](CO)NC(=O)[C@@H](NC(=O)[C@H](CC(=O)O)NC(=O)[C@H](CO)NC(=O)[C@@H](NC(=O)[C@H](Cc1ccccc1)NC(=O)[C@@H](NC(=O)CNC(=O)[C@H](CCC(=O)O)NC(=O)[C@H](C)NC(=O)[C@@H](N)Cc1c[nH]cn1)[C@@H](C)O)[C@@H](C)O)C(C)C)C(=O)N[C@@H](C)C(=O)N[C@@H](Cc1c[nH]c2ccccc12)C(=O)N[C@@H](CC(C)C)C(=O)N[C@H](C(=O)N[C@@H](CCCCN)C(=O)NCC(=O)N[C@@H](CCCNC(=N)N)C(N)=O)C(C)C [GLP-1] |  | 0.0865 ± 0.0099 nM | 80±4 WT % | significantly attenuated the Gs protein activation | significantly attenuated the Gs protein activation | completely abolished the GLP-1 activity | decrease in GLP-1 efficacy | 101.04±3.59 % WT | 13.84±2.59 % WT | significant reduction of GLP-1 potency in cAMP signaling induction for 18 mutants | deficient GLP-1 efficacy | significant reduction of GLP-1 efficacy in Gs activation for 16 mutants
